Source: the NIST ThermoML archive (doi:10.1016/j.tca.2015.06.017)

Assay: xn = mol fraction of the nth substance listed
Conditions: Liquid, Vibrating tube method

CCCCCl [1-chlorobutane] + CCCCCCC
Conditions	mass density [kg/m3]
303.15 K, 50000 kPa, x2 = 0.2013	865.75
303.15 K, 50000 kPa, x2 = 0.3015	841.81
303.15 K, 50000 kPa, x2 = 0.4008	819.81
303.15 K, 50000 kPa, x2 = 0.5026	798.87
303.15 K, 50000 kPa, x2 = 0.6012	780.02
303.15 K, 50000 kPa, x2 = 0.7003	762.36
303.15 K, 50000 kPa, x2 = 0.7995	745.84
303.15 K, 50000 kPa, x2 = 0.9011	729.99
303.15 K, 50000 kPa, x2 = 0.9494	722.81
303.15 K, 60000 kPa, x2 = 0.0508	912.31
303.15 K, 60000 kPa, x2 = 0.0994	899.01
303.15 K, 60000 kPa, x2 = 0.2013	872.64
303.15 K, 60000 kPa, x2 = 0.3015	848.6
303.15 K, 60000 kPa, x2 = 0.4008	826.55
303.15 K, 60000 kPa, x2 = 0.5026	805.54
303.15 K, 60000 kPa, x2 = 0.6012	786.57
303.15 K, 60000 kPa, x2 = 0.7003	768.84
303.15 K, 60000 kPa, x2 = 0.7995	752.23
303.15 K, 60000 kPa, x2 = 0.9011	736.26
303.15 K, 60000 kPa, x2 = 0.9494	729.04
303.15 K, 65000 kPa, x2 = 0.0508	915.61
303.15 K, 65000 kPa, x2 = 0.0994	902.28
303.15 K, 65000 kPa, x2 = 0.2013	875.88
303.15 K, 65000 kPa, x2 = 0.3015	851.83
303.15 K, 65000 kPa, x2 = 0.4008	829.71
303.15 K, 65000 kPa, x2 = 0.5026	808.61
303.15 K, 65000 kPa, x2 = 0.6012	789.63
303.15 K, 65000 kPa, x2 = 0.7003	771.84
303.15 K, 65000 kPa, x2 = 0.7995	755.19
303.15 K, 65000 kPa, x2 = 0.9011	739.21
303.15 K, 65000 kPa, x2 = 0.9494	731.94
313.15 K, 100 kPa, x2 = 0.0508	849.81
313.15 K, 100 kPa, x2 = 0.0994	836.88
313.15 K, 100 kPa, x2 = 0.2013	811.33
313.15 K, 100 kPa, x2 = 0.3015	788.17
313.15 K, 100 kPa, x2 = 0.4008	766.92
313.15 K, 100 kPa, x2 = 0.5026	746.79
313.15 K, 100 kPa, x2 = 0.6012	728.67
313.15 K, 100 kPa, x2 = 0.7003	711.73
313.15 K, 100 kPa, x2 = 0.7995	695.88
313.15 K, 100 kPa, x2 = 0.9011	680.8
313.15 K, 100 kPa, x2 = 0.9494	673.98
313.15 K, 2000 kPa, x2 = 0.0508	852.16
313.15 K, 2000 kPa, x2 = 0.0994	839.22
313.15 K, 2000 kPa, x2 = 0.2013	813.71
313.15 K, 2000 kPa, x2 = 0.3015	790.49
313.15 K, 2000 kPa, x2 = 0.4008	769.27
313.15 K, 2000 kPa, x2 = 0.5026	749.1
313.15 K, 2000 kPa, x2 = 0.6012	730.92
313.15 K, 2000 kPa, x2 = 0.7003	713.94
313.15 K, 2000 kPa, x2 = 0.7995	698.12
313.15 K, 2000 kPa, x2 = 0.9011	683.02
313.15 K, 2000 kPa, x2 = 0.9494	676.19
313.15 K, 5000 kPa, x2 = 0.0508	855.66
313.15 K, 5000 kPa, x2 = 0.0994	842.7
313.15 K, 5000 kPa, x2 = 0.2013	817.15
313.15 K, 5000 kPa, x2 = 0.3015	793.89
313.15 K, 5000 kPa, x2 = 0.4008	772.63
313.15 K, 5000 kPa, x2 = 0.5026	752.4
313.15 K, 5000 kPa, x2 = 0.6012	734.17
313.15 K, 5000 kPa, x2 = 0.7003	717.17
313.15 K, 5000 kPa, x2 = 0.7995	701.32
313.15 K, 5000 kPa, x2 = 0.9011	686.16
313.15 K, 5000 kPa, x2 = 0.9494	679.3
313.15 K, 7000 kPa, x2 = 0.0508	857.83
313.15 K, 7000 kPa, x2 = 0.0994	844.87
313.15 K, 7000 kPa, x2 = 0.2013	819.33
313.15 K, 7000 kPa, x2 = 0.3015	796.12
313.15 K, 7000 kPa, x2 = 0.4008	774.82
313.15 K, 7000 kPa, x2 = 0.5026	754.59
313.15 K, 7000 kPa, x2 = 0.6012	736.35
313.15 K, 7000 kPa, x2 = 0.7003	719.35
313.15 K, 7000 kPa, x2 = 0.7995	703.48
313.15 K, 7000 kPa, x2 = 0.9011	688.32
313.15 K, 7000 kPa, x2 = 0.9494	681.45
313.15 K, 10000 kPa, x2 = 0.0508	861.16
313.15 K, 10000 kPa, x2 = 0.0994	848.2
313.15 K, 10000 kPa, x2 = 0.2013	822.59
313.15 K, 10000 kPa, x2 = 0.3015	799.33
313.15 K, 10000 kPa, x2 = 0.4008	777.95
313.15 K, 10000 kPa, x2 = 0.5026	757.71
313.15 K, 10000 kPa, x2 = 0.6012	739.49
313.15 K, 10000 kPa, x2 = 0.7003	722.43
313.15 K, 10000 kPa, x2 = 0.7995	706.51
313.15 K, 10000 kPa, x2 = 0.9011	691.27
313.15 K, 10000 kPa, x2 = 0.9494	684.4
313.15 K, 20000 kPa, x2 = 0.0508	871.22
313.15 K, 20000 kPa, x2 = 0.0994	858.21
313.15 K, 20000 kPa, x2 = 0.2013	832.53
313.15 K, 20000 kPa, x2 = 0.3015	809.13
313.15 K, 20000 kPa, x2 = 0.4008	787.71
